For assay [1], the system named is MIP1α. The assay is described as follows: LPS-stimulated MIP1α production in sputum macrophages from COPD. Type of assay: cell-based. To be noted: Homo sapiens, Macrophage; read-out: MIP1α E max, sputum macrophage. How it is done:
(§1) Patients with COPD were inhaled with a nebulised solution of 3% (w/v) hypertonic saline using an ultrasonic nebuliser (Devilbiss, Carthage, Mo.) with tidal breathing for 5 min. This procedure was repeated a maximum of three times until enough sputum was obtained. The sputum samples were homogenized and mixed vigorously using a vortex mixer in 0.02% v/v dithiothreitol (DTT) solution. The samples were re-suspended in PBS (40 mL) followed by centrifugation at 1500 rpm at 4° C. for 10 min to obtain sputum cell pellets. The pellets were washed twice with PBS (40 mL). The sputum cells were then re-suspended in macrophage serum-free medium (macrophage-SFM, Life technologies, Paisley, UK; to achieve 2×10^6/well in a 24 well plate) containing 20 U/mL penicillin, 0.02 mg/mL streptomycin and 5 μg/mL amphotericin B and seeded on high bound 96-well plate, followed by incubation for 2 hr at 37° C. and at 5% CO2 to allow the macrophages to attach to the bottom of the plate. The cells on the plate were washed with fresh macrophage-SFM (200 μL/well) to remove neutrophils and other contaminated cells. The adherent cells (mainly sputum macrophages) on the plate were used for further analysis. Sputum induction and isolation were conducted in Quintiles Drug Research Unit at Guys Hospital and ethics approval and written informed consent was obtained by Quintiles.
(§2) Where appropriate, 1 μL of a solution containing either the test compound or reference article at the stated concentrations or alternatively 1 μL of DMSO as the vehicle control was added to each well (200 μL in media) and the cells were incubated for 2 hr. […] After washing with 200 uL wash buffer per well, the beads were resuspended in sheath fluid (150 μL) and analyzed immediately. The level of each analyte in the supernatant was calculated using Xcel Fit software with a 4 or 5-parameter equation using each standard curve. The inhibitions of each cytokine production were calculated at each concentration by comparison with vehicle control. The IC50 values were determined from concentration-inhibition curves using XL-Fit (idbs, Guildford, UK)

Assay [2] relates to IL-6. Description: TNFα-stimulated IL-6 production in primary bronchial epithelial cells from COPD. To be noted: Homo sapiens, Epithelial cell; read-out: IL-6 E max, bronchial epithelial cell. Type of assay: cell-based. How it is done: (§3) Primary airway epithelial cells obtained from patients with COPD were purchased from Asterand (Royston, UK), and maintained in bronchial epithelial cell growth media that was prepared by mixing together LHC8 (lnvitrogen) (500 mL), with LHC9 (Invitrogen) (500 mL) and 3 μL of retinoic acid solution (5 mg/mL in neat DMSO. The media was removed by aspiration and fresh BEGM (200 μL) was added to each well. Where appropriate, 1 μL of a solution of the test compound at the state concentrations or 1 μL of DMSO as the vehicle control was added and the cells were incubated for 2 hr. The cells were stimulated with TNFα (50 μL; final concentration 50 ng/mL) and then incubated for 4 hr at 37° C. and 5% CO2. The supernatant was then collected and kept at −20° C.
(§4) The levels of IL-6 and IL-8 were determined by ELISA using R&D Systems' Human IL-6 and IL-8 Duoset® Elisa Kits. The inhibition of IL-6 and IL-8 production was calculated at each concentration by comparison with vehicle control.

Assay [3] deals with TNFα. Description: LPS-stimulated TNFα production in sputum macrophages from COPD. Type of assay: cell-based. To be noted: Homo sapiens, Macrophage; read-out: TNFα E max, sputum macrophage. How it is done:
as §1, §2

The subject of assay [4] is IL-6. The assay is described as follows: LPS-stimulated IL-6 production in sputum macrophages from COPD. Type of assay: cell-based. The conditions noted are these: Homo sapiens, Macrophage; read-out: IL-6 E max, sputum macrophage. How it is done: Patients with COPD were inhaled with a nebulised solution of 3% (w/v) hypertonic saline using an ultrasonic nebuliser (Devilbiss, Carthage, Mo.) with tidal breathing for 5 min. This procedure was repeated a maximum of three times until enough sputum was obtained. The sputum samples were homogenized and mixed vigorously using a vortex mixer in 0.02% v/v dithiothreitol (DTT) solution. The samples were re-suspended in PBS (40 mL) followed by centrifugation at 1500 rpm at 4° C. for 10 min to obtain sputum cell pellets. The pellets were washed twice with PBS (40 mL). […]
as §2

Assay [5] concerns IL-8. Description: LPS-stimulated IL-8 production in sputum macrophages from COPD. The conditions noted are these: Homo sapiens, Macrophage; read-out: IL-8 E max, sputum macrophage. Type of assay: cell-based. How it is done: as §1, §2
Assay [6] has as its system A/J mice. Description: Cigarette smoke model: macrophage and neutrophil accumulation in BALF. Type of assay: in vivo, mouse. To be noted: 1.75 μg/mouse (35 μL, bid, i.n.). How it is done: A/J mice (males, 5 weeks old) were exposed to cigarette smoke (4% cigarette smoke, diluted with air) for 30 min/day for 11 days using a Tobacco Smoke Inhalation Experiment System for small animals (Model SIS-CS; Sibata Scientific Technology, Tokyo, Japan). […] At 12 hr after the last dosing, each of the animals was anesthetized, the trachea cannulated and bronchoalveolar lavage fluid (BALF) was collected. The numbers of alveolar macrophages and neutrophils were determined by FACS analysis (EPICS® ALTRA II, Beckman Coulter, Inc., Fullerton, Calif., USA) using anti-mouse MOMA2 antibody (macrophage) or anti-mouse 7/4 antibody (neutrophil). BALF was centrifuged and the supernatant was collected. The level of keratinocyte chemoattractant (KC; CXCL1) in BALF was quantitated using a Quentikine® mouse KC ELISA kit (R&D systems, Inc., Minneapolis, Minn., USA).

Assay [7] has as its system IL-8. The assay is described as follows: TNFα-stimulated IL-8 production in primary bronchial epithelial cells from COPD. Type of assay: cell-based. The conditions noted are these: Homo sapiens, Epithelial cell; read-out: IL-8 E max, bronchial epithelial cell. How it is done:
as §3, §4

On to `CCC(=O)O[C@]1(C(=O)SCF)[C@H](C)C[C@H]2[C@@H]3C[C@H](F)C4=CC(=O)C=C[C@]4(C)[C@@]3(F)[C@@H](O)C[C@@]21C` [Fluticasone Propionate, fluticasone propionate, reference compound], for which the Emax at 0.1 µg/mL in assay [1] was found to be 20%; in assay [2], 38%; in assay [3], 18%; in assay [4], 26%; in assay [5] it was 19%; in assay [7], 17%. Besides, the “macrophage accumulation into airways, cigarette smoke model” value in assay [6] is “did not inhibit”. In assay [6], the “neutrophil accumulation into airways, cigarette smoke model” value is given as “did not inhibit”.
